These results are taken from US20250134870A1, “PATHWAY MODULATOR, PHARMACEUTICAL COMPOSITION HAVING SAME, USE THEREOF, AND THERAPEUTIC METHOD USING SAME” (Jiangsu Yahong Meditech Co., Ltd., priority 2021, published 2025).

The subject of this assay is 2,4-dinitrobenzenesulfonic acid (DNBS)-induced colitis. Put plainly: DNBS-induced enteritis/colitis in rats: body weight and stool score (Example 10). Format: in vivo, Wistar rats. Particulars: 3, 10 and 30 mg/kg. As to the method:
The 90 animals were randomly grouped on Day-1 (i.e., the day before the experiment) based on animal body weight to ensure that the body weight of each group of animals were similar, so as to reduce bias. Rats were fasted for 40 hours before the experiment and were injected subcutaneously with 5% glucose saline (10 mL/kg, once daily) during fasting. • Experimental grouping:
On Day 1 of the experiment, fasting rats were anesthetized by intraperitoneal injection with Zoletil (25 mg/kg Tiletamine and 25 mg/kg Zolazepam) and 5 mg/kg Xylazine.
In groups G2-G6, a hose was inserted from the anus to left colic flexure (about 8 cm from the anus) and colitis was induced by DNBS enema (0.5 mL/animal) in rats. The normal control group (G1) received 30% ethanol enema by the same process. The head of the animal after enema was lowered for 15 min, and then the animal was kept in Trendelenburg position until waked to avoid backflow of the enema fluid.
The percentage of body weight was calculated according to the following formula: (body weight on Day X-initial weight)/initial weight]×100%.
(2) Stool score: during the experiment, the stool state of rats was scored daily (0=normal, 1=wet/sticky, 2=loose, 3=liquid).

Consider `NCc1c[nH]c(=S)n1[C@H]1CCc2c(F)cc(F)cc2C1` [Nepicastat], for which the “effects on DNBS-induced colitis in rats” value is “certain prophylactic and therapeutic effects”.
